# Reference: patent US20170196859A1, “PHARMACEUTICAL COMPOSITION COMPRISING PYRAZINE CARBOXAMIDE COMPOUND AS ACTIVE INGREDIENT” (Astellas Pharma Inc., priority 2014, published 2017)
# Tested on: human lymphoblastic leukemia cell line MOLT-4 cells
# Experiment: Proliferation inhibition, MOLT-4 cells (CellTiter-Glo)
# Assay type: cell-based
# Details: MOLT-4, 96 h, 4 days culture
# Protocol: MOLT-4 is a cell lines originated from human lymphoblastic leukemia and the ITK expression has been confirmed (Mol. Pharmacol. 2012; 82:938-947). The human lymphoblastic leukemia cell line MOLT-4 cells (European Collection of Cell Cultures, 85011413) cultured in RPMI1640 medium (Sigma) containing 10% bovine serum were inoculated into 96 well plates. On the same day, DMSO solutions of the test compound B at final concentrations from 1 nM to 10 μM or only DMSO (DMSO group) were added thereto to culture the cells at 37° C. in 5% CO2 for 4 days. Thereafter, the cell number was measured using a cell counting reagent (CellTiter-Glo (registered trademark) Luminescent Cell Viability Assay (Promega)). The cell proliferation inhibition rate was calculated as the measured value in the DMSO group set as 0% inhibition and the measured value in the well only with the medium on which the cells have not been seeded set as 100% inhibition.
smiles,measurement,value
"C=CC(=O)N1CC[C@@H](Oc2nc(Nc3ccc(N4CCC(N5CCN(C)CC5)CC4)cc3)c(C(N)=O)nc2CC)C1 [test compound B, 5-{[(3R)-1-acryloylpyrrolidin-3-yl]oxy}-6-ethyl-3-({4-[4-(4-methylpiperazin-1-yl)piperidin-1-yl]phenyl}amino)pyrazine-2-carboxamide monomethanesulfonate]",IC50,410 nM
